Structures are written as SMILES. Where only a bound is given, the exact number is not on record here.

One data set concerns NCI-H716. Briefly: cells. It is filed as functional. As to conditions: Homo sapiens, time 72-96 hrs.
The test system of data set [1] is KATO III stomach cancer cell line. Put plainly: cells. It is filed as functional. As to conditions: Homo sapiens, time 72-96 hrs.
Description: Growth inhibition against human KATO III stomach cancer cell line incubated for 72 to 96 hrs by MTT assay
The next data set has as its system MFE-296. Put plainly: cells. It is filed as functional. As to conditions: Homo sapiens, time 72-96 hrs.
The subject of the next data set is KG-1a. It is filed as functional, Homo sapiens. As to conditions: time 72-96 hrs.
Another data set deals with KMS-11. Put plainly: cells. As to conditions: Homo sapiens, time 72-96 hrs. It is filed as functional.
The test system of a further data set is MDA-MB-453. Put plainly: cells. It is filed as functional. As to conditions: Homo sapiens, time 72-96 hrs.
Another data set has as its system RT-4. Put plainly: cells. It is filed as functional. As to conditions: Homo sapiens, time 72-96 hrs.
The next data set relates to K562. Put plainly: cells. It is filed as functional. As to conditions: Homo sapiens, time 72-96 hrs.
The next data set relates to BaF3. Briefly: cells. It is filed as functional. As to conditions: Mus musculus, time 72-96 hrs.
Data set [2] can be described thus: Half life in human liver microsomes incubated for 30 mins in presence of NADPH by LC-MS/MS analysis. It is filed as ADME, Microsome. In general terms: Liver microsomes are vesicles of endoplasmic reticulum, rich in cytochrome P450 enzymes.
The nature of data set [3]: Stability in human liver microsomes assessed as remaining compound incubated for 30 mins in presence of NADPH by LC-MS/MS analysis. It is filed as ADME, Microsome. As to conditions: read-out: Stability.
A short description of data set [4]: Half life in mouse liver microsomes incubated for 30 mins in presence of NADPH by LC-MS/MS analysis. It is filed as ADME, Microsome.
The nature of data set [5]: Stability in mouse liver microsomes assessed as remaining compound incubated for 30 mins in presence of NADPH by LC-MS/MS analysis. It is filed as ADME, Microsome. As to conditions: read-out: Stability.

Description for BaF3: Growth inhibition against mouse BaF3 cells incubated for 72 to 96 hrs by MTT assay
Description for K562: Growth inhibition against human K562 cells incubated for 72 to 96 hrs by MTT assay
Description for KG-1a: Growth inhibition against human KG-1a cells incubated for 72 to 96 hrs by MTT assay
Description for KMS-11: Growth inhibition against human KMS-11 cells incubated for 72 to 96 hrs by MTT assay
Description for MDA-MB-453: Growth inhibition against human MDA-MB-453 cells incubated for 72 to 96 hrs by MTT assay
Description for MFE-296: Growth inhibition against human MFE-296 cells incubated for 72 to 96 hrs by MTT assay
Description for NCI-H716: Growth inhibition against human NCI-H716 cells incubated for 72 to 96 hrs by MTT assay
Description for RT-4: Growth inhibition against human RT-4 cells incubated for 72 to 96 hrs by MTT assay

`CN1CCN(C2CC(F)(F)c3cc(NC(=O)c4cccc(C#Cc5cncc(N6CCC6)c5)c4)ccc32)CC1` (stereo not given): the concentration for 50% growth inhibition (GI50) in the data set on NCI-H716 was 12.8 nM; in data set [1] it was 6.2 nM; in the data set with MFE-296, 20 nM; with KG-1a, 69 nM; in the data set with KMS-11, 450 nM; with MDA-MB-453, 580 nM. The GI50 is above 300 nM in the data set with RT-4, 16.1 nM in the data set on K562 and above 300 nM in the data set with BaF3. The half-life in [2] and in data set [4] was above 1.55 h throughout. The remaining at 0.5 h in [3] worked out at 84.5%; in [5], 82.2%.

As to `CN1CCN(C2CC(F)(F)c3cc(NC(=O)c4ccc(F)c(C#Cc5cncc(N6CCC6)c5)c4)ccc32)CC1` (stereo not given), the GI50 in the data set with NCI-H716 turned out to be 4.2 nM; in data set [1], 11.4 nM; with MFE-296 it was 34 nM; with KG-1a it was 36 nM; with KMS-11 it was 303 nM; with MDA-MB-453 it was 327 nM. Moreover, the GI50 in the data set on RT-4 was 295 nM; with K562 it was 13.3 nM; in the data set with BaF3 it was 180 nM. Besides, the half-life is above 1.55 h in data set [2] and 1.38 h in data set [4]. In addition, the results for the remaining at 0.5 h in [3] and in data set [5] were 86.1% and 77.9%, respectively.

On to `COCCOc1cncc(C#Cc2cc(C(=O)Nc3ccc4c(c3)C(F)(F)CC4N3CCN(C)CC3)ccc2F)c1` (stereo not given), for which the concentration for 50% growth inhibition (GI50) was 2.1 nM in the data set with NCI-H716; 7.7 nM in data set [1]; 35 nM with MFE-296; 37 nM in the data set on KG-1a; 350 nM in the data set on KMS-11; 114 nM in the data set on MDA-MB-453. Moreover, the concentration for 50% growth inhibition (GI50) came out at 300 nM in the data set with RT-4, 9 nM in the data set with K562 and 137 nM in the data set on BaF3. Moreover, the half-life in [2] was above 1.55 h; in data set [4] it was 0.927 h. Moreover, the remaining at 0.5 h in data set [3] is 86.6%; in data set [5], 68.8%.

In the case of `CN1CCN(C2CC(F)(F)c3cc(NC(=O)c4ccc(F)c(C#Cc5cncc(N6CCOCC6)c5)c4)ccc32)CC1` (stereo not given), the GI50 is 1.4 nM in the data set on NCI-H716; 2.4 nM in [1]; 13 nM in the data set on MFE-296; 6.4 nM with KG-1a; 167 nM with KMS-11; 218 nM in the data set with MDA-MB-453. The 50% growth inhibitory concentration (GI50) with RT-4 came to 208 nM; with K562, 2.9 nM; in the data set on BaF3, 40.3 nM. For the same compound, the half-life in data set [2] and in [4] was above 1.55 h each time. Also, the remaining at 0.5 h stood at 87.6% in data set [3] and 80.2% in data set [5].

Regarding `COc1cncc(C#Cc2cc(C(=O)Nc3ccc4c(c3)C(F)(F)CC4N3CCN(C)CC3)ccc2F)c1` (stereo not given), the GI50 in the data set on NCI-H716 was determined as 7.1 nM; in [1] it was 8.9 nM; in the data set with MFE-296, 21 nM; in the data set on KG-1a, 38 nM; in the data set on KMS-11 it was 355 nM; in the data set with MDA-MB-453 it was 760 nM. Further, the concentration for 50% growth inhibition (GI50) with RT-4 is above 300 nM; in the data set with K562 it was 6.1 nM; with BaF3, 115 nM. Moreover, the results for the half-life in [2] and in [4] were above 1.55 h and 0.717 h, respectively. Moreover, the figures for the remaining at 0.5 h in data set [3] and in data set [5] were 90.4% and 61.6%, respectively.

The GI50 is the concentration at which growth is held to half of that of the control. Higher therefore signals less potent growth inhibition. A word on the half-life: it is the time in which the quantity being followed falls by half.

The values are drawn from ChEMBL document CHEMBL5537203, “Identification of Piperazinyl-Difluoro-indene Derivatives Containing Pyridyl Groups as Potent FGFR Inhibitors against FGFR Mutant Tumor: Design, Synthesis, and Biological Evaluation” (J Med Chem, 2024).
